Values quoted from earlier work, collected in article PMC4099323, “Inhibition of Catalase by Tea Catechins in Free and Cellular State: A Biophysical Approach” (PLoS ONE, 2014).

Columns and labels:
G3BP1 = settings: read-out: dissociation constant (K d); cited from earlier work
[1] = test system: phosphorylation of JNK, JUN, MEK1, MEK2; settings: JB6 epidermal cell lines, 5–20 µM; cited from earlier work

## O=C(O[C@@H]1Cc2c(O)cc(O)cc2O[C@@H]1c1cc(O)c(O)c(O)c1)c1cc(O)c(O)c(O)c1 [EGCG, (−)-epigallocatechin gallate]
G3BP1
  Kd: 400 nM
[1]
  inhibition of phosphorylation of JNK, JUN, MEK1, MEK2: inhibited
